Reference: patent US5460801A, “Inhibition of small cell lung cancer cell growth in vivo using monoclonal antibody” (The United States of America as represented by the …, priority 1993, dated 1995)
Several values for one entry are separate records, joined by “and”; a condition that tells them apart may be missing. Equal entries are not always repeated. Square brackets hold non-standard residues; d marks the D form. Ends that are not written are not given here. Peptide text beside a SMILES is read from it. pGlu = O=C1CC[C@@H](C(=O)O)N1

Tests used:
[1] = system: 2A11 staining of BLP in paraffin embedded tissue; experiment: Immunohistochemical staining with 2A11: pre-absorption specificity test; settings: peptide 100 μg/ml; 2A11 at 10 μg/ml
From the text: Antibody 2A11 was also used for immunohistochemical localization of BLP in paraffin embedded tissue. Using rabbit antisera it has been reported that chick proventriculus and human fetal bronchioles are rich in BN-like immunoreactivity. Use was, therefore, made of immunohistochemical staining technique of Hsu, et al. J. Histochem. Cytochem. 29, 557-5--1981, in combination with 2A11 for the light microscopic detection of BLP. Bombesinergic cells were found in chick proventriculus, human fetal bronchioles and a human SCLC. Immune staining was performed using 2A11 at 10 μg/ml.

solid phase 2A11 = experiment: Quantitative inhibition assay: peptide inhibition of 125I-Tyr4-BN binding to solid phase 2A11; set-up: species or system mouse; settings: for PERCENT INHIBITION of 125I-Tyr4-BN binding to solid phase 2A11: peptides at 1 nM, mean ± SD of 3 determinations
Experimental: Antibodies 2A11 or MOPC 21 were adsorbed to 96 well polyvinylchloride plates at 500 ng/well followed by saturation with 1% BSA-PBS. Unlabeled bombesin was added to triplicate wells covering a range from 1-1,000 pg and incubated for 1 hr. at room temperature. Without removing the unlabeled bombesin samples, about 12,000 cpm of ^125 I-Tyr^4 -bombesin was added to each well and incubated overnight at 4° C., washed 8× and counted. All additions were in 1% BSA-PBS in a 25 μl volume, and the washes were with 1% BSA-PBS 0.2 ml/well.

monoclonal antibody 2A11 = experiment: Indirect radioimmunoassay: 2A11 cross reactivity with solid phase synthetic peptides; type: binding, mouse; settings: for % 125I-PROTEIN A BOUND (% cross reactivity with 2A11): cpm minus BSA background relative to bombesin; for % 125I-PROTEIN A BOUND (% cross reactivity with 2A11) / CPM 125I-PROTEIN A BOUND: peptides solid phased at 500 ng/well; for 2A11 binding to the solid phase peptide (in words): indirect RIA / titration of 2A11; for CPM 125I-PROTEIN A BOUND: 2A11 10 μg/ml, detection with rabbit anti mouse IgG and 125I-protein A
Experimental: Peptides (all purchased from Peninsula Laboratories) were adsorbed to 96 well polyvinyl chloride microtiter plates (Dynatech) by adding 0.05 ml of a 10 μg/ml peptide in phosphate buffered saline (PBS) for 1 hr., washing in PBS, then blocking with a 1% bovine serum albumin (BSA) PBS solution. Purified 2A11 from ascites fluid (10 μg/ml) was added, incubated, washed three times, then protein A affinity purified rabbit anti-mouse IgG (Cappel Laboratories) 1.6 μg/ml) was added, incubated, washed three times, then ^125 I-protein A (Pharmacia, labeled by chloramine T method to 40-50 μCi/μg) 40,000 cpm/well was added, incubated, washed 8× and then the wells cut out and counted in a Beckman gamma counter. All incubations were for 1 hr. at room temperature in PBS with 1% BSA in 0.025 ml volumes.
Percent cross reactivity was determined as follows:
% cross reactivity--cpm^125 I-protein A bound on peptide target minus cpm bound on BSA target divided by crop bound by bombesin minus BSA background times 100. Typically, the bombesin target caused 2A11 binding sufficient to bind about 32,776 cpm of ^125 I-protein A while the BSA background bound about 30 cpm.

NCI-N592 = experiment: Agarose clonogenic assay in serum-free HITES medium, NCI-N592; type: cell-based, human; settings: 50 nM exogenous BN; SCLC lines NCI-N417D and NCI-N592
Experimental: Because of its poor colony forming efficiency in serum-free medium, NCI-N417 culture plates were supplemented with 0.1% BSA to enhance cell growth, NCI-N592 cells were seeded at 5×10^4 per plate while NCI-N417 cells were plated at 1×10^4. Plates were pre-screened to verify single cell distribution of test cells and assessed 21 days later for colony formation. Cell aggregates of greater than 50 cells were scored positive as definitive colony growth.

| Molecule | PERCENT INHIBITION of 125I-Tyr4-BN binding to solid phase 2A11 (solid phase 2A11) | % 125I-PROTEIN A BOUND (% cross reactivity with 2A11) (monoclonal antibody 2A11) | CPM 125I-PROTEIN A BOUND (monoclonal antibody 2A11) | also measured |
| --- | --- | --- | --- | --- |
| bombesin | 100.0 ± 4.7% | 100% |  | effect of pre-absorption of the antibody solution on 2A11 staining (in words) [1]: staining inhibited; 2A11 binding to the solid phase peptide (in words) (monoclonal antibody 2A11): maximal binding; CPM 125I-PROTEIN A BOUND (monoclonal antibody 2A11; listed as BOMBESIN): 32,776 CPM; CPM 125I-PROTEIN A BOUND (monoclonal antibody 2A11; listed as bombesin): about 32,776 CPM; effect of exogenous BN on 2A11 growth inhibition (in words) (NCI-N592): nullification of the 2A11 effect |
| CSCC[C@H](NC(=O)[C@H](Cc1ccccc1)NC(=O)[C@H](Cc1c[nH]cn1)NC(=O)CNC(=O)[C@@H](NC(=O)[C@H](C)NC(=O)[C@H](Cc1c[nH]c2ccccc12)NC(=O)[C@H](CCC(N)=O)NC(=O)[C@@H]1CCC(=O)N1)C(C)C)C(N)=O [Litorin] | 56.5 ± 6.2% |  |  |  |
| Alytesin | 99.0 ± 5.1% |  |  |  |
| CC[C@H](C)[C@H](NC(=O)[C@H](Cc1ccccc1)NC(=O)[C@H](C)NC(=O)[C@H](CC(=O)O)NC(=O)[C@H](CCCCN)NC(=O)[C@H](CO)NC(=O)[C@@H]1CCCN1C(=O)[C@@H]1CCC(=O)N1)C(=O)NCC(=O)N[C@@H](CC(C)C)C(=O)N[C@@H](CCSC)C(N)=O [ELEDOISIN, eledoisin] ([pGlu]PSKDAFIGLM-NH2) |  | < 0.02% | 24 CPM | % 125I-PROTEIN A BOUND (% cross reactivity with 2A11) (monoclonal antibody 2A11; listed as eledoisin): less than 0.3% |
| CSCC[C@H](NC(=O)[C@H](CC(C)C)NC(=O)CNC(=O)[C@H](Cc1ccccc1)NC(=O)[C@H](Cc1ccccc1)NC(=O)[C@H](CCC(N)=O)NC(=O)[C@H](CCC(N)=O)NC(=O)[C@@H]1CCCN1C(=O)[C@H](CCCCN)NC(=O)[C@@H]1CCCN1C(=O)[C@@H](N)CCCNC(=N)N)C(N)=O [SUBSTANCE P, substance P] |  | < 0.02% | 31 CPM | inhibition of 125I-Tyr4-BN/2A11 binding (in words) (solid phase 2A11; same concentration range as BN standard curve): incapable of inhibiting; % 125I-PROTEIN A BOUND (% cross reactivity with 2A11) (monoclonal antibody 2A11; listed as substance P): less than 0.3%; 2A11 binding to the solid phase peptide (in words) (monoclonal antibody 2A11): insignificant 2A11 binding |
| neurotensin |  |  |  | effect of pre-absorption of the antibody solution on 2A11 staining (in words) [1]: no inhibition of staining |
| GRP^14-27: fragment 14-27 of gastrin releasing peptide (MYPRGNHWAVGHLM; ends and bridges not checked; UniProt P07492 37-50, looked up, fragment) | 104.3 ± 7.7% | 102% | 33,379 CPM |  |
| KASSININ |  | < 0.02% | 37 CPM | % 125I-PROTEIN A BOUND (% cross reactivity with 2A11) (monoclonal antibody 2A11; listed as kassinin): less than 0.3% |
| CSCC[C@H](NC(=O)[C@H](Cc1ccccc1)NC(=O)[C@H](Cc1c[nH]cn1)NC(=O)CNC(=O)[C@@H](NC(=O)[C@H](C)NC(=O)[C@H](Cc1c[nH]c2ccccc12)NC(=O)[C@H](CCC(N)=O)NC(=O)[C@@H]1CCCN1C(=O)[C@@H](NC(=O)[C@@H]1CCC(=O)N1)C(C)C)C(C)C)C(N)=O [Ranatensin] ([pGlu]VPQWAVGHFM-NH2) | 54.0 ± 8.4% |  |  |  |
| gastrin-releasing peptide [GASTRIN RELEASING PEPTIDE (GRP)] | 101.0 ± 3.4% | 102% | 33,405 CPM | 2A11 binding to the solid phase peptide (in words) (monoclonal antibody 2A11): maximal binding |
| PHYSALAEMIN |  | < 0.02% | 28 CPM | % 125I-PROTEIN A BOUND (% cross reactivity with 2A11) (monoclonal antibody 2A11; listed as physalaemin): less than 0.3% |
| GRP^20-27: C-terminal octapeptide fragment 20-27 of gastrin releasing peptide |  |  |  | PERCENT INHIBITION of 125I-Tyr4-BN binding to solid phase 2A11 (solid phase 2A11; 0.001 µM): 98.5 ± 2.4% and 98.5% |
